Source: ChEMBL document CHEMBL2074223 (Mol Pharmacol, 2000)
Blank lines part the entries; values can stand above or below the molecule they belong to.

Key:
Format in all cases: functional, cell-based
Bile salt export pump [1] = molecular target: T1, Bile salt export pump (Mus musculus, UniProt Q9QY30); experiment: (§1) TP_TRANSPORTER: intracellular accumulation in Bsep-expressing LLC-PK1 cells; conditions: pig
T1 sequence (Q9QY30 whole entry): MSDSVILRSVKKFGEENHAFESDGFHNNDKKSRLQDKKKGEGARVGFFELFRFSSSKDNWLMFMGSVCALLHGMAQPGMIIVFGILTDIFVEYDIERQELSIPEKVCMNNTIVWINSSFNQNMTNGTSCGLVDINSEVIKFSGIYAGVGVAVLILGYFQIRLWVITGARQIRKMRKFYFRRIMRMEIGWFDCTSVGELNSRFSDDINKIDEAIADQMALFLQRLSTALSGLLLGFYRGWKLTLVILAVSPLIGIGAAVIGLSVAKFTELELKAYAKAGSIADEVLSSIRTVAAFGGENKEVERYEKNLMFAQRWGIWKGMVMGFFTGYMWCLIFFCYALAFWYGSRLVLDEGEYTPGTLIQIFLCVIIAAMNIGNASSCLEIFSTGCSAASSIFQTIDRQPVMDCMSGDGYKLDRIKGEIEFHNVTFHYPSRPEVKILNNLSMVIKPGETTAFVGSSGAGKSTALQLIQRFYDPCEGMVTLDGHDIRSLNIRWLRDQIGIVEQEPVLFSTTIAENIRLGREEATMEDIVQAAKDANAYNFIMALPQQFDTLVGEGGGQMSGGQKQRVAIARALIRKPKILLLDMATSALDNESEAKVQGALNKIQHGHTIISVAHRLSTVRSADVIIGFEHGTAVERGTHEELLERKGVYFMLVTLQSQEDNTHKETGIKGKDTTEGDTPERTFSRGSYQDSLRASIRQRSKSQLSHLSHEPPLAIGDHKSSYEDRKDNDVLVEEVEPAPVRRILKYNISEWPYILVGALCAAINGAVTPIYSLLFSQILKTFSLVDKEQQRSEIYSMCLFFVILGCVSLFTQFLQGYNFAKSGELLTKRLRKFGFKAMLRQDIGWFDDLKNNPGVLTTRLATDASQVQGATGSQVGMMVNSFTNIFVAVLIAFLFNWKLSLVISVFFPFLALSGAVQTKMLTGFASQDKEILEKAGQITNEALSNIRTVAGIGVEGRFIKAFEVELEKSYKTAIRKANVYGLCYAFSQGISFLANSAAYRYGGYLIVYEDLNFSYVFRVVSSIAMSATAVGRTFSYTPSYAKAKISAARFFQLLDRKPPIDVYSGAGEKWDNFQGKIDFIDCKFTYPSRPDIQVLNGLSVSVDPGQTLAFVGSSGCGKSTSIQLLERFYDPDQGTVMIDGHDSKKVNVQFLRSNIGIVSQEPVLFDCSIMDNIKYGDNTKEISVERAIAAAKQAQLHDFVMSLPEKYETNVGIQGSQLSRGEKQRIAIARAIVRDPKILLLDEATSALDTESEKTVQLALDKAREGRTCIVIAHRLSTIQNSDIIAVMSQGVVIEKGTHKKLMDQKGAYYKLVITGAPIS

[2] = molecular target: T2, ATP-dependent translocase ABCB1 (Homo sapiens, UniProt P08183); experiment: (§2) TP_TRANSPORTER: intracellular accumulation in MDR1-expressing LLC-PK1 cells; conditions: pig
T2 sequence (P08183 whole entry): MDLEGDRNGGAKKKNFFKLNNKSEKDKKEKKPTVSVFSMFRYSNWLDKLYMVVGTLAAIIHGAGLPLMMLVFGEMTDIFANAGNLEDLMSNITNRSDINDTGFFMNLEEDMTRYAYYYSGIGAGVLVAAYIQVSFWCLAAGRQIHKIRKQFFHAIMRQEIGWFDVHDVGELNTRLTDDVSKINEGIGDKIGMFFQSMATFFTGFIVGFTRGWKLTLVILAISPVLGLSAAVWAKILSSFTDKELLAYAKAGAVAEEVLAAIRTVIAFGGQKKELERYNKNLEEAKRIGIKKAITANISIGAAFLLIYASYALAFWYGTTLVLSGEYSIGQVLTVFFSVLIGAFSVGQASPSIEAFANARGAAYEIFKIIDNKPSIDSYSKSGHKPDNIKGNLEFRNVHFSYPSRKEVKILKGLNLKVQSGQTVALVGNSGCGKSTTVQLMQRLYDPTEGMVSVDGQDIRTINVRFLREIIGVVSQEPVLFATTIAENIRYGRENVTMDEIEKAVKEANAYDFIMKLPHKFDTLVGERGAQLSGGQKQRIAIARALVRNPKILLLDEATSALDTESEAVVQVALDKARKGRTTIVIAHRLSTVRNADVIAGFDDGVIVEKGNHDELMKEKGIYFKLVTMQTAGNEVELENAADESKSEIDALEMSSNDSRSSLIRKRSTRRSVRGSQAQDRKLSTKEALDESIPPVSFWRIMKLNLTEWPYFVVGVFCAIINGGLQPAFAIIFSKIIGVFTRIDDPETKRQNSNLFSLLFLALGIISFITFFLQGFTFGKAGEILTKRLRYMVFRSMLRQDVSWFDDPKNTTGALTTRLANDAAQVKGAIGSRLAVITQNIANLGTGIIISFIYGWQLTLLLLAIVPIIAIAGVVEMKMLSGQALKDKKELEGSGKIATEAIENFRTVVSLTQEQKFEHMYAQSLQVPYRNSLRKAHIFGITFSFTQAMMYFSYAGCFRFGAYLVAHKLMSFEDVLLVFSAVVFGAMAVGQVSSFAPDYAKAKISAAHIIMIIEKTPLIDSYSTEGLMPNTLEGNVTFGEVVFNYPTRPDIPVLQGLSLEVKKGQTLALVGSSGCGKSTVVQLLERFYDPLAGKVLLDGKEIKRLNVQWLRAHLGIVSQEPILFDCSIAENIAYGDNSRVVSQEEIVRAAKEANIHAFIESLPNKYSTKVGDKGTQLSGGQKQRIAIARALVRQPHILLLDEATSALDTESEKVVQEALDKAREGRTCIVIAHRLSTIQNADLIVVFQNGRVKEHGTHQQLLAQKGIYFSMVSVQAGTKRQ

[3] = tested on: CC[C@]1(O)C[C@@H]2CN(CCc3c([nH]c4ccccc34)[C@@](C(=O)OC)(c3cc4c(cc3OC)N(C)[C@H]3[C@@](O)(C(=O)OC)[C@H](OC(C)=O)[C@]5(CC)C=CCN6CC[C@]43[C@@H]65)C2)C1; experiment: as §2
Bile salt export pump [4] = molecular target: T1, Bile salt export pump; experiment: TP_TRANSPORTER: increase in Calcein-AM intracellular accumulation (Calcein-AM: 1 uM, Reserpine: 20 uM) in Bsep-expressing LLC-PK1 cells; conditions: pig, llc-pk1, 20 µM
[5] = molecular target: T2, ATP-dependent translocase ABCB1; experiment: TP_TRANSPORTER: increase in Calcein-AM intracellular accumulation (Calcein-AM: 1 uM, Ditekiren: 20 uM) in MDR1-expressing LLC-PK1 cells; conditions: pig, llc-pk1, 20 µM
Bile salt export pump [6] = molecular target: T1, Bile salt export pump; experiment: TP_TRANSPORTER: increase in Calcein-AM intracellular accumulation (Calcein-AM: 1 uM, Ditekiren: 20 uM) in Bsep-expressing LLC-PK1 cells; conditions: pig, llc-pk1, 20 µM
[7] = substrate: CC[C@]1(O)C[C@@H]2CN(CCc3c([nH]c4ccccc34)[C@@](C(=O)OC)(c3cc4c(cc3OC)N(C)[C@H]3[C@@](O)(C(=O)OC)[C@H](OC(C)=O)[C@]5(CC)C=CCN6CC[C@]43[C@@H]65)C2)C1; experiment: as §1

Molecule: ATP-dependent translocase ABCB1 (Homo sapiens)
- Km [3]: 99.4 µM

Molecule: COC(=O)[C@H]1[C@H]2C[C@@H]3c4[nH]c5cc(OC)ccc5c4CCN3C[C@H]2C[C@@H](OC(=O)c2cc(OC)c(OC)c(OC)c2)[C@@H]1OC [RESERPINE]
- Activity (Bile salt export pump [4]): inhibitor [+]

Molecule: C[C@H]1O[C@@H](O[C@H]2[C@@H](O)C[C@H](O[C@H]3[C@@H](O)C[C@H](O[C@H]4CC[C@@]5(C)[C@H](CC[C@@H]6[C@@H]5C[C@@H](O)[C@]5(C)[C@@H](C7=CC(=O)OC7)CC[C@]65O)C4)O[C@@H]3C)O[C@@H]2C)C[C@H](O)[C@@H]1O [DIGOXIN]
- Activity (Bile salt export pump [1]): is not a substrate [-]

B1: Bile salt export pump (Mus musculus) (protein)
chain: T1 sequence (Q9QY30 whole entry)
- Km [7]: 38.3 µM

Further lines, with some results ahead:

- Activity [2]: substrate [+]
Molecule: CC[C@]1(O)C[C@H]2CN(CCc3c([nH]c4ccccc34)[C@@](C(=O)OC)(c3cc4c(cc3OC)N(C=O)[C@H]3[C@@](O)(C(=O)OC)[C@H](OC(C)=O)[C@]5(CC)C=CCN6CC[C@]43[C@@H]65)C2)C1 [VINCRISTINE]
- Activity (Bile salt export pump [1]): is not a substrate [-]

- Activity [5]: is not an inhibitor [-]
Molecule: CC[C@H](C)[C@H](NC(=O)[C@@H](C[C@H](O)[C@H](CC(C)C)NC(=O)[C@H](Cc1c[nH]cn1)N(C)C(=O)[C@H](Cc1ccccc1)NC(=O)[C@@H]1CCCN1C(=O)OC(C)(C)C)C(C)C)C(=O)NCc1ccccn1
- Activity (Bile salt export pump [6]): inhibitor [+]

- Activity [2]: substrate [+]
Molecule: COC(=O)c1ccccc1-c1c2ccc(=N)cc-2oc2cc(N)ccc12.Cl [RHODAMINE123]
- Activity (Bile salt export pump [1]): is not a substrate [-]

- Activity [2]: substrate [+]
Molecule: COc1cccc2c1C(=O)c1c(O)c3c(c(O)c1C2=O)C[C@@](O)(C(C)=O)C[C@@H]3O[C@H]1C[C@H](N)[C@H](O)[C@H](C)O1 [DAUNORUBICIN]
- Activity (Bile salt export pump [1]): is not a substrate [-]

- Activity [2]: substrate [+]
Molecule: CC(=O)OCOC(=O)CN(CC(=O)OCOC(C)=O)Cc1c(OC(C)=O)ccc2c1Oc1c(ccc(OC(C)=O)c1CN(CC(=O)OCOC(C)=O)CC(=O)OCOC(C)=O)C21OC(=O)c2ccccc21
- Activity (Bile salt export pump [1]): substrate [+]

- Activity [2]: substrate [+]
Molecule: CC(=O)O[C@H]1C(=O)[C@@]2(C)[C@H]([C@H](OC(=O)c3ccccc3)[C@]3(O)C[C@H](OC(=O)[C@H](O)[C@@H](NC(=O)c4ccccc4)c4ccccc4)C(C)=C1C3(C)C)[C@]1(OC(C)=O)CO[C@@H]1C[C@@H]2O [PACLITAXEL]
- Activity (Bile salt export pump [1]): is not a substrate [-]
